Assay results taken from US4427582A, “Antimicrobial disulfide prodrugs” (SmithKline Beckman Corporation, priority 1982, dated 1984).
Where a SMILES comes first, the peptide text is derived from it. The star is where a group is joined. SPy = c1ccc(S*)nc1

Key:
Candida albicans β311 = test: Disk activity against Candida albicans β311; format: cell-based
Description: (§1) For example, disk activity against Candida albicans β311 for the prodrug was 0.04 minimal inhibitory concentration with 0.01 for the warhead alone.

E. coli CB64recA/F'123 = test: Disc assay for inhibition on seeded agar plates (zones of inhibition after overnight incubation); format: cell-based, Escherichia coli; set-up: unit not given here; conditions: for Zones of inhibition diameter: section C
Experimental: The medium was that of Davis and Mingioli, supplemented with 4 μg/ml of thiamine and 50 μg/ml of required amino acid supplements with 1.5% agar for solid media. Seeded agar plates contained 0.1 ml of an overnight culture per 20 ml of molten agar (kept at 49°) containing appropriate supplements.
[…] of test solution was added to 1/4" diameter paper discs and the discs placed on the surface of agar plates which were incubated overnight at 37°. The bacterial strains of E. coli, whose strains are given hereafter, were obtained from the E. coli Genetic Stock Center.
Zones of inhibition on seeded agar plates after overnight incubation.

Fungal = Fungal activity in vitro, prodrug compared with non-latentiated warhead; format: cell-based
Description: as §1

[1] = 200 nmol per disc, overnight incubation
[2] = 800 nmol per disc, overnight incubation
[3] = 800 nmol per disc, overnight incubation, section B

[O-][n+]1ccccc1S [2-mercaptopyridyl-1-one, reference compound]
minimal inhibitory concentration (disk activity) (Candida albicans β311): 0.01

C[C@H](N)C(=O)N[C@@H](C)C(=O)N[C@@H](CSSCCNc1cc(C(=O)O)nc(C(=O)O)c1)C(=O)O [L-Ala--L-Ala--L-Ala--S--MEPDA, L-alanyl-L-alanyl-β-L-alanyl 2-(2,6-dicarboxy-pyridyl-4)-aminoethyl disulfide]
Zone of inhibition diameter (E. coli CB64recA/F'123; 30 nmol, tripeptide alone, section D): 11 | Zones of inhibition diameter (E. coli CB64recA/F'123; 40 nmol per disc, overnight incubation): 9 | Zone of inhibition diameter (E. coli CB64recA/F'123; 60 nmol, tripeptide alone, section D): 15 | Zones of inhibition diameter (E. coli CB64recA/F'123; [1]): 16 | Zones of inhibition diameter (E. coli CB64recA/F'123; [2]): 24

C[C@H](N)C(=O)N[C@@H](CSSc1ccccn1)C(=O)O [L-Ala--L-Ala--S--2MP, L-alanyl-β-L-alanyl 2-pyridyl disulfide] (H-Ala-Cys(SPy)-OH)
Zone of inhibition diameter (E. coli CB64recA/F'123; [3]): 15

C[C@H](N)C(=O)N[C@@H](C)C(=O)N[C@@H](CSSc1ccccn1)C(=O)O [L-ala- L-Ala--L-ala- S--2MP, L-alanyl-L-alanyl-β-L-alanyl 2-pyridyl disulfide] (H-Ala-Ala-Cys(SPy)-OH)
Zone of inhibition diameter (E. coli CB64recA/F'123; 40 nmol per disc, overnight incubation, section B): ( ) | Zone of inhibition diameter (E. coli CB64recA/F'123; 200 nmol per disc, overnight incubation, section B): 14 | Zone of inhibition diameter (E. coli CB64recA/F'123; [3]): 25

C[C@H](NC(=O)C(N)CCCN)C(=O)N[C@@H](CSSCCNc1cc(C(=O)O)nc(C(=O)O)c1)C(=O)O (stereo partly drawn) [Orn--L-Ala--L-Ala--S--MEPDA]
Zones of inhibition diameter (E. coli CB64recA/F'123; [1]): 10 | Zones of inhibition diameter (E. coli CB64recA/F'123; [2]): 12

NCCCC(N)C(=O)NC(CSSCCNc1cc(C(=O)O)nc(C(=O)O)c1)C(=O)O [Orn--L-Ala--S--MEPDA]
Zones of inhibition diameter (E. coli CB64recA/F'123; 250-500 nmol per disc, overnight incubation): 13

L-alanyl-β-L-alanyl N-oxy 2-pyridyl disulfide
activity in vitro relative to 2-mercaptopyridyl-1-one in non-latentiated form (Fungal): generally less activity | potential for irritation relative to 2-mercaptopyridyl-1-one (Potential for irritation): lower potential for irritation | minimal inhibitory concentration (disk activity) (Candida albicans β311): 0.04
